In US20240109917A1 (ACTELION PHARMACEUTICALS LTD, priority 2020, published 2024):

Tests used:
[1] = molecular target: VEGFR2, unphosphorylated (Homo sapiens (Human), UniProt P35968); assay: VEGFR ADP GLO Assay; format: biochemical
[2] = molecular target: His6-TEV-PDGFRβ (557-1016) (Homo sapiens (Human), UniProt P09619); assay: PDGFRβ HTRF Assay; format: biochemical; settings: read-out: PDGFR HTRF IC50
How it was run: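 Human PDGFRβ (557-1016) pre-incubated with compound for 30 min at RT in pH 7.5 HEPES/MgCl2/EGTA/Brij-35/DTT buffer. Reaction started with ATP and TK-biotin peptide, run 3 h at RT, then quenched with EDTA-containing Eu-cryptate antibody/streptavidin-XL665. HTRF 665/620 nm ratio read after 60 min; percent inhibition relative to DMSO and 10 μM imatinib controls.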

Chain of His6-TEV-PDGFRβ (557-1016) (P09619 557-1016): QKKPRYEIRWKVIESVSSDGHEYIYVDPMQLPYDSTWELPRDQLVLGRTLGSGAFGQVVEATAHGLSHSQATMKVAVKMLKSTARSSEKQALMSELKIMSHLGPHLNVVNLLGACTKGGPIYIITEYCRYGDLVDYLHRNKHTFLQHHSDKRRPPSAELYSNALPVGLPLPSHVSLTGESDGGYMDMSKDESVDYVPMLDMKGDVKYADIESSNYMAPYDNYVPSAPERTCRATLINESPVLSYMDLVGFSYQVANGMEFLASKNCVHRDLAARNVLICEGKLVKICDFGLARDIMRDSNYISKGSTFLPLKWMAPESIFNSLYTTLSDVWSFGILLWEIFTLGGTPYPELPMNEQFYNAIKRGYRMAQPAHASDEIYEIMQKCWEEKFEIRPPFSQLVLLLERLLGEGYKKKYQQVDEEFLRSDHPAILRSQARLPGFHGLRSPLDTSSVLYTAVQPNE
Chain of VEGFR2, unphosphorylated (P35968 20-1356): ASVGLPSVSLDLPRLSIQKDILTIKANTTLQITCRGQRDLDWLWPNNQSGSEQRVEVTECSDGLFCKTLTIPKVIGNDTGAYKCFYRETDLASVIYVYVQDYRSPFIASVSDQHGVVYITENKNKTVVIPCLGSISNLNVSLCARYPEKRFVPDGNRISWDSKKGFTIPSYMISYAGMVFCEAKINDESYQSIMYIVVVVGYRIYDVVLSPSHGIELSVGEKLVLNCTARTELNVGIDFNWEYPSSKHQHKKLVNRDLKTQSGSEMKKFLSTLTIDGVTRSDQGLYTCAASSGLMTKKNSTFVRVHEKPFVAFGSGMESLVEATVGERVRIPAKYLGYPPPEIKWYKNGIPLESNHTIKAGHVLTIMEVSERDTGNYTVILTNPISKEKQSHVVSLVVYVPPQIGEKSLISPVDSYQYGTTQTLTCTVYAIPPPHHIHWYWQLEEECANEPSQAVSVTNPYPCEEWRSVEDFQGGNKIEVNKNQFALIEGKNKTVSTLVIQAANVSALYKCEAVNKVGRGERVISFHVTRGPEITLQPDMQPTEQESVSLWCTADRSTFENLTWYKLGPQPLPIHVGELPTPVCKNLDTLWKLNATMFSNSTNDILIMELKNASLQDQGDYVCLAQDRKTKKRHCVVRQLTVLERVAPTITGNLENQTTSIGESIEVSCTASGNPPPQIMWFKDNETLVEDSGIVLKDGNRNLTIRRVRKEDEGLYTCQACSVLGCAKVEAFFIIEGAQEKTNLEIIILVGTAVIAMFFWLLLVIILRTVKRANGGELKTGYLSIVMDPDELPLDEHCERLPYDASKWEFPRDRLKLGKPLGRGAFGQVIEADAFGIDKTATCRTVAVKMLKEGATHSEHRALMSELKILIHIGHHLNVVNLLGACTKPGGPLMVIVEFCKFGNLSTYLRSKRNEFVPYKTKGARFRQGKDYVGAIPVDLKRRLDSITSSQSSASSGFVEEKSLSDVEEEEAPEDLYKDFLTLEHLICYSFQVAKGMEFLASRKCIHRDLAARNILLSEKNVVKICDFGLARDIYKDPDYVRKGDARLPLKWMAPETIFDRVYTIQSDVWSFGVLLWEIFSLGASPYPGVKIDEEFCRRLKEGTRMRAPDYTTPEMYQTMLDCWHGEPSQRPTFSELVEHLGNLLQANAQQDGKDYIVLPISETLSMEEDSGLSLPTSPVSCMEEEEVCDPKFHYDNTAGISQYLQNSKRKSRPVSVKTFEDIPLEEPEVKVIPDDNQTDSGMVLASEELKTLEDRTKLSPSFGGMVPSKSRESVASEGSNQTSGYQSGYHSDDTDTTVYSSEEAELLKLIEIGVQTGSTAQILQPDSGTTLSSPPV

Cc1ncc(C(=O)NCCN2CCCC2(C)C)cc1NC(=O)c1cnn2cc(-c3ccnc(N4CCOCC4)c3)sc12 [Example 483, N-(5-((2-(2,2-dimethylpyrrolidin-1-yl)ethyl)carbamoyl)-2-methylpyridin-3-yl)-2-(2-morpholinopyridin-4-yl)pyrazolo[5,1-b]thiazole-7-carboxamide]
IC50 [1]: > 7500 nM | IC50 [2]: 0.3 nM

Cc1ncc(NC(=O)CN2CCOC(C)(C)C2)cc1NC(=O)c1cnn2cc(-c3cnn(C)c3)sc12 [Example 67, N-(5-(2-(2,2-dimethylmorpholino)acetamido)-2-methylpyridin-3-yl)-2-(1-methyl-1H-pyrazol-4-yl)pyrazolo[5,1-b]thiazole-7-carboxamide]
IC50 [1]: > 7500 nM | IC50 [2]: 1 nM

Cc1ncc(NC(=O)CN2CCOCC23CCC3)cc1NC(=O)c1cnn2cc(-c3cnn(C)c3)sc12 [Example 78, N-(5-(2-(8-oxa-5-azaspiro[3.5]nonan-5-yl)acetamido)-2-methylpyridin-3-yl)-2-(1-methyl-1H-pyrazol-4-yl)pyrazolo[5,1-b]thiazole-7-carboxamide]
IC50 [1]: > 7500 nM | IC50 [2]: 0.9 nM

COCCn1cc(-c2cn3ncc(C(=O)Nc4cc(NC(=O)C[C@H]5CCN(C(C)C)C5)cnc4C)c3s2)cn1 [Example 486, (R)—N-(5-(2-(1-isopropylpyrrolidin-3-yl)acetamido)-2-methylpyridin-3-yl)-2-(1-(2-methoxyethyl)-1H-pyrazol-4-yl)pyrazolo[5,1-b]thiazole-7-carboxamide]
IC50 [1]: > 7500 nM | IC50 [2]: 2.6 nM

Cc1ncc(NC(=O)CN2CCN(C)C(=O)C2)cc1NC(=O)c1cnn2cc(-c3cnn(C)c3)sc12 [Example 72, 2-(1-methyl-1H-pyrazol-4-yl)-N-(2-methyl-5-(2-(4-methyl-3-oxopiperazin-1-yl)acetamido)pyridin-3-yl)pyrazolo[5,1-b]thiazole-7-carboxamide]
IC50 [1]: > 7500 nM | IC50 [2]: 5.7 nM

Cc1ncc(NC(=O)CN2CCO[C@H](C)C2)cc1NC(=O)c1cnn2cc(-c3cnn(C)c3)sc12 [Example 54, (R)-2-(1-methyl-1H-pyrazol-4-yl)-N-(2-methyl-5-(2-(2-methylmorpholino)acetamido)pyridin-3-yl)pyrazolo[5,1-b]thiazole-7-carboxamide]
IC50 [1]: > 7500 nM | IC50 [2]: 0.5 nM

CC[C@H]1COCCN1CC(=O)Nc1cnc(C)c(NC(=O)c2cnn3cc(-c4cnn(C)c4)sc23)c1 [Example 70, (S)—N-(5-(2-(3-ethylmorpholino)acetamido)-2-methylpyridin-3-yl)-2-(1-methyl-1H-pyrazol-4-yl)pyrazolo[5,1-b]thiazole-7-carboxamide]
IC50 [1]: > 7500 nM | IC50 [2]: 0.2 nM

COCCn1cc(-c2cn3ncc(C(=O)Nc4cc(NC(=O)CCN5C[C@H]6CC[C@@H]5C6)cnc4C)c3s2)cn1 [Example 94, N-(5-(3-((1R,4S)-2-azabicyclo[2.2.1]heptan-2-yl)propanamido)-2-methylpyridin-3-yl)-2-(1-(2-methoxyethyl)-1H-pyrazol-4-yl)pyrazolo[5,1-b]thiazole-7-carboxamide]
IC50 [1]: > 7500 nM | IC50 [2]: 0.5 nM

Cc1ncc(NC(=O)CN2CCn3ccnc3C2)cc1NC(=O)c1cnn2cc(-c3cnn(C)c3)sc12 [Example 75, N-(5-(2-(5,6-dihydroimidazo[1,2-a]pyrazin-7 (8H)-yl)acetamido)-2-methylpyridin-3-yl)-2-(1-methyl-1H-pyrazol-4-yl)pyrazolo[5,1-b]thiazole-7-carboxamide]
IC50 [1]: > 7500 nM | IC50 [2]: 4.1 nM

Cc1ncc(C(=O)NCCN2CC3CCC2CC3)cc1NC(=O)c1cnn2cc(-c3ccnc(N4CCOCC4)c3)sc12 [Example 484, N-(5-((2-(2-azabicyclo[2.2.2]octan-2-yl)ethyl)carbamoyl)-2-methylpyridin-3-yl)-2-(2-morpholinopyridin-4-yl)pyrazolo[5,1-b]thiazole-7-carboxamide]
IC50 [1]: > 7500 nM | IC50 [2]: 0.2 nM

Cc1ncc(NC(=O)CN2CCc3cccnc3C2)cc1NC(=O)c1cnn2cc(-c3cnn(C)c3)sc12 [Example 60, N-(5-(2-(5,6-dihydro-1,7-naphthyridin-7 (8H)-yl)acetamido)-2-methylpyridin-3-yl)-2-(1-methyl-1H-pyrazol-4-yl)pyrazolo[5,1-b]thiazole-7-carboxamide]
IC50 [1]: > 7500 nM | IC50 [2]: 1 nM

Cc1ncc(NC(=O)CN2C3CCC2COC3)cc1NC(=O)c1cnn2cc(-c3cnn(C)c3)sc12 [Example 44, N-(5-(2-(3-oxa-8-azabicyclo[3.2.1]octan-8-yl)acetamido)-2-methylpyridin-3-yl)-2-(1-methyl-1H-pyrazol-4-yl)pyrazolo[5,1-b]thiazole-7-carboxamide]
IC50 [1]: > 7500 nM | IC50 [2]: 1.3 nM

Cc1ncc(NC(=O)CN2CCOC[C@@H]2C)cc1NC(=O)c1cnn2cc(-c3cnn(C)c3)sc12 [Example 74, (S)-2-(1-methyl-1H-pyrazol-4-yl)-N-(2-methyl-5-(2-(3-methylmorpholino)acetamido)pyridin-3-yl)pyrazolo[5,1-b]thiazole-7-carboxamide]
IC50 [1]: > 7500 nM | IC50 [2]: 1 nM

Cc1ncc(NC(=O)CN2CCCC(F)(F)C2)cc1NC(=O)c1cnn2cc(-c3cnn(C)c3)sc12 [Example 49, N-(5-(2-(3,3-difluoropiperidin-1-yl)acetamido)-2-methylpyridin-3-yl)-2-(1-methyl-1H-pyrazol-4-yl)pyrazolo[5,1-b]thiazole-7-carboxamide]
IC50 [1]: > 7500 nM | IC50 [2]: 0.4 nM

Cc1ncc(NC(=O)CN2CCOCC23CC3)cc1NC(=O)c1cnn2cc(-c3cnn(C)c3)sc12 [Example 47, N-(5-(2-(7-oxa-4-azaspiro[2.5]octan-4-yl)acetamido)-2-methylpyridin-3-yl)-2-(1-methyl-1H-pyrazol-4-yl)pyrazolo[5,1-b]thiazole-7-carboxamide]
IC50 [1]: > 7500 nM | IC50 [2]: 0.9 nM

COCCn1cc(-c2cn3ncc(C(=O)Nc4cc(NC(=O)CCN5CCC(C)(C)C5)cnc4C)c3s2)cn1 [Example 89, N-(5-(3-(3,3-dimethylpyrrolidin-1-yl)propanamido)-2-methylpyridin-3-yl)-2-(1-(2-methoxyethyl)-1H-pyrazol-4-yl)pyrazolo[5,1-b]thiazole-7-carboxamide]
IC50 [1]: > 7500 nM | IC50 [2]: 0.6 nM

COCCn1cc(-c2cn3ncc(C(=O)Nc4cc(NC(=O)CCN5CC(C)(C)C5)cnc4C)c3s2)cn1 [Example 93, N-(5-(3-(3,3-dimethylazetidin-1-yl)propanamido)-2-methylpyridin-3-yl)-2-(1-(2-methoxyethyl)-1H-pyrazol-4-yl)pyrazolo[5,1-b]thiazole-7-carboxamide]
IC50 [1]: > 7500 nM | IC50 [2]: 0.9 nM

Cc1ncc(C(=O)NCCN2CCCC23CC3)cc1NC(=O)c1cnn2cc(-c3cnn(C)c3)sc12 [Example 2, N-(5-((2-(4-azaspiro[2.4]heptan-4-yl)ethyl)carbamoyl)-2-methylpyridin-3-yl)-2-(1-methyl-1H-pyrazol-4-yl)pyrazolo[5,1-b]thiazole-7-carboxamide]
IC50 [1]: > 7500 nM | IC50 [2]: 0.7 nM

Cc1ncc(NC(=O)CN2CCC3(CCO3)CC2)cc1NC(=O)c1cnn2cc(-c3cnn(C)c3)sc12 [Example 81, N-(5-(2-(1-oxa-7-azaspiro[3.5]nonan-7-yl)acetamido)-2-methylpyridin-3-yl)-2-(1-methyl-1H-pyrazol-4-yl)pyrazolo[5,1-b]thiazole-7-carboxamide]
IC50 [1]: > 7500 nM | IC50 [2]: 2.8 nM
